The subject of assay [1] is ENR+CD organoids (ISC to Paneth cell differentiation). Briefly: Primary screen: basal (non-stimulated) lysozyme secretion LYZ.NS, 2.5-D 384-well ENR+CD organoid differentiation. The assay is classed as cell-based, mouse. Particulars: primary screen; for Z.LYZ.NS: standard z score. The text has this:
(§1) High-throughput screening.

Assay [2] shares this test system. Briefly: Primary screen: CCh-stimulated lysozyme secretion LYZ.S, 2.5-D 384-well ENR+CD organoid differentiation. Particulars: primary screen. In kind it is cell-based, mouse.
Description: as §1

For assay [3], the system named is ENR+CD organoids. Briefly: Primary screen: ATP (CellTiter-Glo 3D, CTG) cell number/viability, 2.5-D 384-well ENR+CD organoids.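 On all read-outs here: compounds given at plating and again on day 3 over a 6-day differentiation from ENR+CV stem-cell-enriched precursors, ATP measured on day 6, plate median as control.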 Particulars: primary screen; for Z.CTG: standard z score. In general terms: Cellular ATP, detected with luciferase, serves as a proxy for viable cell number.
[4] abbreviates: dose 0.08 uM, FC vs plate median.
Where [5] appears, read: dose 0.40 uM, FC vs plate median.
Setting [6] is: dose 2.00 uM, FC vs plate median.
[7] abbreviates: dose 10.00 uM, FC vs plate median.
Setting [8] is: dose 10.00 uM, FC relative to plate median.
Where [9] appears, read: dose 0.08 uM, FC relative to plate median.
Setting [10] is: dose 0.40 uM, FC relative to plate median.
Setting [11] is: dose 2.00 uM, FC relative to plate median.

Regarding `O=C1[C@H](Cc2ccc(O)cc2)N2C(=O)CCN(C(=O)NCc3ccccc3)[C@H]2CN1Cc1cccc2ccccc12` [ICG-001], the “Dose.FC.LYZ.NS (log2 fold change)” value in assay [1] (dose 0.08 uM) is 0.037; in assay [1] (dose 0.40 uM), 0.037; in assay [1] (dose 2.00 uM) it was 0.045; in assay [1] (dose 10.00 uM), −0.125. Besides, the “Z.LYZ.NS (standard z score)” value was 0.324 in assay [1] (dose 0.08 uM), 0.321 in assay [1] (dose 0.40 uM), 0.396 in assay [1] (dose 2.00 uM) and −1.093 in assay [1] (dose 10.00 uM). Besides, the “Dose.FC.LYZ.S (log2 fold change)” value is given as 0.163 in assay [2] (dose 0.08 uM), 0.204 in assay [2] (dose 0.40 uM), 0.017 in assay [2] (dose 2.00 uM) and −0.124 in assay [2] (dose 10.00 uM). The “Dose.FC.CTG (log2 fold change)” value was 0.104 in assay [3] (dose 0.08 uM), 0.104 in assay [3] (dose 0.40 uM), 0.143 in assay [3] (dose 2.00 uM) and −0.416 in assay [3] (dose 10.00 uM). Also, the “Z.CTG (standard z score)” value is recorded as 0.249 in assay [3] (dose 0.08 uM), 0.248 in assay [3] (dose 0.40 uM), 0.343 in assay [3] (dose 2.00 uM) and −0.993 in assay [3] (dose 10.00 uM).
For the compound `O=C(O)c1cccc(-c2noc(-c3ccccc3F)n2)c1` [Ataluren (PTC124)], the Dose.FC.LYZ.NS came to 0.029 log2 fold change in assay [1] (dose 0.08 uM), 0.042 log2 fold change in assay [1] (dose 0.40 uM), 0.131 log2 fold change in assay [1] (dose 2.00 uM) and 0.009 log2 fold change in assay [1] (dose 10.00 uM). Moreover, the “Z.LYZ.NS (standard z score)” value was determined as 0.253 in assay [1] (dose 0.08 uM), 0.362 in assay [1] (dose 0.40 uM), 1.140 in assay [1] (dose 2.00 uM) and 0.077 in assay [1] (dose 10.00 uM). Further, the Dose.FC.LYZ.S in assay [2] (dose 0.08 uM) is recorded as 0.051 log2 fold change; in assay [2] (dose 0.40 uM) it was 0.034 log2 fold change; in assay [2] (dose 2.00 uM), 0.058 log2 fold change; in assay [2] (dose 10.00 uM), 0.005 log2 fold change. The Dose.FC.CTG in assay [3] (dose 0.08 uM) is 0.267 log2 fold change; in assay [3] (dose 0.40 uM), −0.340 log2 fold change; in assay [3] (dose 2.00 uM), −0.042 log2 fold change; in assay [3] (dose 10.00 uM), 0.006 log2 fold change. Besides, the “Z.CTG (standard z score)” value in assay [3] (dose 0.08 uM) is on record as 0.639; in assay [3] (dose 0.40 uM) it was −0.813; in assay [3] (dose 2.00 uM) it was −0.100; in assay [3] (dose 10.00 uM) it was 0.013.
For `O=C(O)c1ccc(Nc2ncc3c(n2)-c2ccc(Cl)cc2C(c2c(F)cccc2F)=NC3)cc1` [MLN8054], the Z.LYZ.NS in assay [1] (dose 0.08 uM) is 0.574; in assay [1] (dose 0.40 uM), 0.066; in assay [1] (dose 2.00 uM) it was −0.868; in assay [1] (dose 10.00 uM), −0.979. Besides, the Dose.FC.LYZ.NS in assay [1] (setting [4]) is recorded as 0.066 log2 fold change; in assay [1] (setting [5]), 0.008 log2 fold change; in assay [1] (setting [6]), −0.100 log2 fold change; in assay [1] (setting [7]) it was −0.112 log2 fold change. Further, the Dose.FC.LYZ.S in assay [2] (setting [4]) is 0.042 log2 fold change; in assay [2] (setting [5]) it was 0.167 log2 fold change; in assay [2] (setting [6]), −0.087 log2 fold change; in assay [2] (setting [7]) it was −0.197 log2 fold change. In addition, the Dose.FC.CTG in assay [3] (setting [4]) is listed as 0.026 log2 fold change; in assay [3] (setting [5]), 0.014 log2 fold change; in assay [3] (setting [6]), −0.465 log2 fold change; in assay [3] (setting [7]), −0.498 log2 fold change.
On to `CC(C)(C)n1nc(-c2ccc(Cl)cc2)c2c(N)ncnc21` [PP2], for which the Z.LYZ.NS was 0.285 in assay [1] (dose 0.08 uM), 0.104 in assay [1] (dose 0.40 uM), 2.354 in assay [1] (dose 2.00 uM) and −0.235 in assay [1] (dose 10.00 uM). Moreover, the Dose.FC.LYZ.NS in assay [1] (setting [8]) is −0.027 log2 fold change; in assay [1] (setting [4]), 0.033 log2 fold change; in assay [1] (setting [5]), 0.012 log2 fold change; in assay [1] (setting [6]) it was 0.270 log2 fold change. In addition, the Dose.FC.LYZ.S is reported as 0.027 log2 fold change in assay [2] (setting [8]), 0.058 log2 fold change in assay [2] (setting [4]), 0.145 log2 fold change in assay [2] (setting [5]) and 0.113 log2 fold change in assay [2] (setting [6]). The Z.CTG in assay [3] (dose 0.08 uM) was −1.655; in assay [3] (dose 0.40 uM), 0.312; in assay [3] (dose 2.00 uM), −0.913; in assay [3] (dose 10.00 uM), −0.587. Also, the Dose.FC.CTG in assay [3] (setting [8]) is −0.246 log2 fold change; in assay [3] (setting [4]) it was −0.693 log2 fold change; in assay [3] (setting [5]) it was 0.130 log2 fold change; in assay [3] (setting [6]), −0.382 log2 fold change.
For `O=S(=O)(c1ccccc1)N(CC(F)(F)F)c1ccc(C(O)(C(F)(F)F)C(F)(F)F)cc1` [T0901317], the Dose.FC.LYZ.NS in assay [1] (setting [9]) is recorded as 0.086 log2 fold change; in assay [1] (setting [10]), 0.042 log2 fold change; in assay [1] (setting [11]) it was 0.074 log2 fold change; in assay [1] (setting [8]) it was −0.015 log2 fold change. For the same compound, the Z.LYZ.NS in assay [1] (dose 0.08 uM) is recorded as 0.748; in assay [1] (dose 0.40 uM) it was 0.369; in assay [1] (dose 2.00 uM), 0.644; in assay [1] (dose 10.00 uM), −0.130. Besides, the Dose.FC.LYZ.S was 0.111 log2 fold change in assay [2] (setting [9]), 0.077 log2 fold change in assay [2] (setting [10]), 0.070 log2 fold change in assay [2] (setting [11]) and −0.034 log2 fold change in assay [2] (setting [8]). Also, the Dose.FC.CTG in assay [3] (setting [9]) stood at 0.047 log2 fold change; in assay [3] (setting [10]), 0.178 log2 fold change; in assay [3] (setting [11]), 0.096 log2 fold change; in assay [3] (setting [8]), 0.114 log2 fold change.
As for `Cl.Cl.O=S(=O)(NCCNC/C=C/c1ccc(Br)cc1)c1cccc2cnccc12` [H 89 2HCl], the “Dose.FC.LYZ.NS (log2 fold change)” value in assay [1] (dose 0.08 uM) was found to be 0.140; in assay [1] (dose 0.40 uM), 0.080; in assay [1] (dose 2.00 uM) it was 0.086; in assay [1] (dose 10.00 uM), 0.132. Further, the “Z.LYZ.NS (standard z score)” value in assay [1] (dose 0.08 uM) worked out at 1.223; in assay [1] (dose 0.40 uM), 0.695; in assay [1] (dose 2.00 uM) it was 0.747; in assay [1] (dose 10.00 uM), 1.151. In addition, the “Dose.FC.LYZ.S (log2 fold change)” value is 0.118 in assay [2] (dose 0.08 uM), 0.148 in assay [2] (dose 0.40 uM), 0.087 in assay [2] (dose 2.00 uM) and 0.000 in assay [2] (dose 10.00 uM). Also, the “Dose.FC.CTG (log2 fold change)” value in assay [3] (dose 0.08 uM) was found to be 0.350; in assay [3] (dose 0.40 uM) it was 0.398; in assay [3] (dose 2.00 uM), 0.421; in assay [3] (dose 10.00 uM), 0.385. In addition, the “Z.CTG (standard z score)” value was found to be 0.836 in assay [3] (dose 0.08 uM), 0.950 in assay [3] (dose 0.40 uM), 1.005 in assay [3] (dose 2.00 uM) and 0.919 in assay [3] (dose 10.00 uM).

The values are drawn from patent US20220323406A1, “METHODS AND COMPOSITIONS FOR DIFFERENTIATING STEM CELLS” (Massachusetts Institute of Technology, priority 2019, published 2022).
